The assay addresses T1, Zcchc11 enzyme (Homo sapiens, UniProt Q5TAX3).
T1 construct: made in house; host or cells: HEK293 cells (Zcchc11); E. coli Rosetta II (LIN28A)
T1 sequence (Q5TAX3 212-1420): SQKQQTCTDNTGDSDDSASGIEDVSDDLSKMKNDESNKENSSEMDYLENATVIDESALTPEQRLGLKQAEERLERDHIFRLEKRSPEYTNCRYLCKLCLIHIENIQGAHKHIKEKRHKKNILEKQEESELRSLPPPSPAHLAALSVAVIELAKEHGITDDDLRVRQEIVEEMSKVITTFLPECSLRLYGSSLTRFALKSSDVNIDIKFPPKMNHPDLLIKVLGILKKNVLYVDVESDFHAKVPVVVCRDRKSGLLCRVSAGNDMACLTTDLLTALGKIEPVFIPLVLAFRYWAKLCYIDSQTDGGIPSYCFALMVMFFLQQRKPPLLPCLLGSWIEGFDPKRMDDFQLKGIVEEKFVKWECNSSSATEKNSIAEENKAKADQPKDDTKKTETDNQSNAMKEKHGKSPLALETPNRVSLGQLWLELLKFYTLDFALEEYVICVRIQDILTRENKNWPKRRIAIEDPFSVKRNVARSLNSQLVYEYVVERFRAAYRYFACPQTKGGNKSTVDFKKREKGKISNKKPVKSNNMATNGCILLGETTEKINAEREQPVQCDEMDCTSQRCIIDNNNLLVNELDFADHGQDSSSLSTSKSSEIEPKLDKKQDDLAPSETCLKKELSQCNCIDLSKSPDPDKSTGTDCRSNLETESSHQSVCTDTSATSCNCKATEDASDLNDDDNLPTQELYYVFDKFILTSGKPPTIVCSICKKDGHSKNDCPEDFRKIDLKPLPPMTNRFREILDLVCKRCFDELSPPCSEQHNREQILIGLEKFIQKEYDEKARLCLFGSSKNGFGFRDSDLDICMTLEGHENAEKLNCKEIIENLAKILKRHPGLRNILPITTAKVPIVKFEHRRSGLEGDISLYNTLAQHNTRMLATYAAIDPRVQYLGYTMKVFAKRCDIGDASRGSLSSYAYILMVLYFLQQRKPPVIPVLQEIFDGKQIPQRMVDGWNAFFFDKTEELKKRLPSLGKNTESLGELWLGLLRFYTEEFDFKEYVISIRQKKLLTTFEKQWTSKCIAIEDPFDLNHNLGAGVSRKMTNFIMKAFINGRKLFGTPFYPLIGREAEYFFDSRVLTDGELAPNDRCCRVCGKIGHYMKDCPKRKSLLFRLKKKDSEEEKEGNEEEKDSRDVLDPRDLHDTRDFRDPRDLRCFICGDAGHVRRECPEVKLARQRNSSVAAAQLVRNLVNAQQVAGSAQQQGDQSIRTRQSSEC
Nature of the assay: TUTase assay (Zcchc11 assay, Lin28a-dependent polyuridylation of pre-let-7). It is filed as biochemical. The following applies: Lin28a-dependent Zcchc11 (Z11) TUTase activity; read-out: Potency Lin28a-dep Z11 IC50. The essentials: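 HEK293-expressed human Zcchc11 (residues 212-1420, 0.2 nM) with 10 nM LIN28A and 2 nM 5′-fluorescein pre-let-7, preincubated 30 min at room temperature, pH 7.3. Started with 5 uM UTP; poly(U) tails quenched by 3′-rhodamine A20 probe, read kinetically. IC50 from early-rate four-parameter fit; no-UTP wells define 0%.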
A word on the IC50: it is the concentration that inhibits the measured activity by half. Consider `CN(C)C1CN(c2ccc(-n3cc(C(=O)O)c(=O)c4cc(Cl)c(N5CCCC5)cc43)cn2)C1` [Compound 295, C6-chloro-1-(6-(3-(dimethyl-amino)azetidin-1-yl)pyridin-3-yl)-4-oxo-7-(pyrrolidin-1-yl)-1,4-dihydro-quinoline-3-carboxylic acid], for which the IC50 was 1 to 10 µM.

On to `CC1C[C@H](COc2ncccc2Cl)N(c2cc3c(cc2Cl)c(=O)c(C(=O)O)cn3-c2ccc(N3CC(N(C)C)C3)nc2)C1` (stereo partly drawn) [Compound 296, 6-chloro-7-((2R)-2-(((3-chloropyridin-2-yl)oxy)methyl)-4-methyl-pyrrolidin-1-yl)-1-(6-(3-(dimethyl-amino)azetidin-1-yl)pyridin-3-yl)-4-oxo-1,4-dihydro-quinoline-3-carboxylic acid], for which the 50% inhibitory concentration (IC50) was no more than 1 µM.

Turning to `Cc1cc2c(=O)c(C(=O)O)cn(-c3ccnc(N)c3)c2cc1N1CCC[C@@H]1COc1ncccc1Cl` [Compound 297, (R)-1-(2-aminopyridin-4-yl)-7-(2-(((3-chloropyridin-2-yl)oxy)methyl)pyrrolidin-1-yl)-6-methyl-4-oxo-1,4-dihydro-quinoline-3-carboxylic acid], the IC50 was no more than 1 µM.

Take `Cc1cc2c(=O)c(C(=O)O)cn(-c3ccc(N4CC(N(C)C)C4)nc3)c2cc1N1C(=O)CC1COc1ccccn1` (stereo not drawn) [Compound 298, 1-(6-(3-(dimethyl-amino)azetidin-1-yl)pyridin-3-yl)-6-methyl-4-oxo-7-(2-oxo-4-((pyridin-2-yloxy)methyl)azetidin-1-yl)-1,4-dihydro-quinoline-3-carboxylic acid]: the IC50 lay in the range of 10 to 50 µM.

`COc1ccc(Cl)c(OC[C@H]2CCCN2c2cc3c(cc2Cl)c(=O)c(C(=O)O)cn3-c2ccc(N3CC(N(C)C)C3)nc2)n1` [Compound 299, (R)-6-chloro-7-(2-(((3-chloro-6-methoxy-pyridin-2-yl)oxy)methyl)pyrrolidin-1-yl)-1-(6-(3-(dimethyl-amino)azetidin-1-yl)pyridin-3-yl)-4-oxo-1,4-dihydro-quinoline-3-carboxylic acid]: the IC50 was no more than 1 µM.

On to `O=C(O)c1cn2c3cc(c(Cl)cc3c1=O)N1CCC[C@@H]1COc1nc(ccc1Cl)OCCCNc1ccc-2cn1` [Compound 300, (R)-26,63-dichloro-24-oxo-21,24-dihydro-5,7-dioxa-11-aza-2(1,7)-quinolina-1(5,2),6(2, 6)-dipyridina-3(1,2)-pyrrolidina cyclo-undecaphane-23-carboxylic acid], for which the IC50 was no more than 1 µM.

Regarding `CN(C)C1CN(c2ccc(-n3cc(C(=O)O)c(=O)c4cc(Cl)c(N5CC(F)(F)C[C@@H]5COc5ncccc5Cl)nc43)cn2)C1` [Compound 301, (R)-6-chloro-7-(2-(((3-chloropyridin-2-yl)oxy)methyl)-4,4-difluoro-pyrrolidin-1-yl)-1-(6-(3-(dimethyl-amino)azetidin-1-yl)pyridin-3-yl)-4-oxo-1,4-dihydro-1,8-naphthyridine-3-carboxylic acid], the IC50 was no more than 1 µM.

For `COCCN(C)C1CN(c2ccc(-n3cc(C(=O)O)c(=O)c4cc(F)c(N5CCC[C@@H]5COc5nc(OC)ccc5Cl)cc43)cn2)C1` [Compound 302, (R)-7-(2-(((3-chloro-6-methoxy-pyridin-2-yl)oxy)methyl)pyrrolidin-1-yl)-6-fluoro-1-(6-(3-((2-methoxyethyl) (methyl)amino)azetidin-1-yl)pyridin-3-yl)-4-oxo-1,4-dihydro-quinoline-3-carboxylic acid], the IC50 is no more than 1 µM.

As for `CN(C)C1CN(c2ncc(-n3cc(C(=O)O)c(=O)c4cc(Cl)c(N5CC(c6cccnc6)C[C@@H]5COc5ncccc5Cl)cc43)cn2)C1` (stereo partly drawn) [Compound 303, 6-chloro-7-((2R)-2-(((3-chloropyridin-2-yl)oxy)methyl)-4-(pyridin-3-yl)pyrrolidin-1-yl)-1-(2-(3-(dimethyl-amino)azetidin-1-yl)pyrimidin-5-yl)-4-oxo-1,4-dihydro-quinoline-3-carboxylic acid], the IC50 is no more than 1 µM.
